For series [1], the system named is S. aureus ATCC 13709. Description: Antibacterial susceptibility (MIC) in the presence of serum. The series is classed as cell-based.
Series [2] has as its system S. aureus (chronic bone infection). Kind of series: Treatment of chronic osteomyelitis caused by S. aureus in rat model. The series is classed as in vivo. To be noted: prodrug iv at 20 mg/kg parent equivalent; for Decrease in bacterial titer: q24hx4+q4 days, FIGS. 3, 4, 5; for Effect on bacterial titer in bone infection versus the untreated control (figure legends): regimen of the figure, 4 weeks post-infection. The text has this: To appraise the ability of bisphosphonated prodrugs of Rifamycin derivatives in treating chronic bone infections, a comparison was made between parent compounds 9, 56, 69, rifabutin and rifalazil (all of which are non-bisphosphonated rifamycin derivatives), and their corresponding bisphosphonated prodrugs, respectively 11, 62, 71, 36 and 81, when used to treat chronically (14- to 28-day) infected rats for 4 weeks of antimicrobial therapy.
In this experiment, rats were infected as described in Example 4 and treated with either 20 mg/kg of body weight of the specific rifamycin derived antibacterial agent subcutaneously, or a molar equivalent dose of its bisphosphonated prodrug intravenously according to the indicated schedule after instillation of bacteria. The standard controls involving no treatment and a subcutaneous treatment of 20 mg/kg of Rifampicin daily were also included. The rats were humanely sacrificed at the conclusion of the experiment and the bacterial titers in the infected tibiae were determined.
This experiment was performed with 20 mg/kg of body weight of rifamycin derivative 9 subcutaneously or with 32 mg/kg of its prodrug 11 (corresponding to 20 mg/kg of 9) intravenously on each of the 20th, 24th, 28th, 32nd, 36th, 40th and […] days (q4 days) after instillation of bacteria. Alternatively, 11 was administered by the same route and at the same dose on the 20th, 21st, 22nd, 23rd, 30th, 37th, 44th and 47th days (q24hx4+q7d) after the instillation of bacteria. The same controls (no treatment or daily subcutaneous 20 mg/kg dose of rifampicin) were used. The rats were humanely sacrificed on the 48th day after the initiation of infection and the bacterial titers in the infected tibiae were determined.
This experiment was also executed in which similarly infected rats were treated with either 20 mg/kg of body weight of rifabutin subcutaneously or with 33.4 mg/kg of its prodrug 36 (corresponding to 20 mg/kg of rifabutin) intravenously on each of the 28th, 32nd, 36th, 40th, 44th, 48th and 52nd days (q4 days) after instillation of bacteria. The same controls (no treatment or daily subcutaneous 20 mg/kg dose of rifampicin) were used. The rats were humanely sacrificed on the 55th day after the initiation of infection and the bacterial titers in the infected tibiae were determined.
This experiment was also executed in which similarly infected rats were treated with either 20 mg/kg of body weight of the rifamycin derived antibacterial agent 56 subcutaneously or with 26 mg/kg of its prodrug 62 (corresponding to 20 mg/kg of 56) intravenously on each of the 27th, 28th, 29th, 30th, 34th, 38th, 42nd, 46th and 50th days (q24hx4+q4 days) after instillation of bacteria. The same controls (no treatment or daily subcutaneous 20 mg/kg dose of rifampicin) were used. The rats were humanely sacrificed on the 51^St day after the initiation of infection and the bacterial titers in the infected tibiae were determined.
This experiment was also executed in which similarly infected rats were treated with either 20 mg/kg of body weight of the rifamycin derived antibacterial agent 69 subcutaneously or with 28 mg/kg of its prodrug 71 (corresponding to 20 mg/kg of 69) intravenously on each of the 18th, 19th, 20th, 21st, 25th, 29th, 33rd, 37th, 41st and 45th days (q24hx4+q4 days) after instillation of bacteria. The same controls (no treatment or daily subcutaneous 20 mg/kg dose of rifampicin) were used. The rats were humanely sacrificed on the 46th day after the initiation of infection and the bacterial titers in the infected tibiae were determined.

Series [3] is described as follows: Regeneration of drug from bone powder-bound prodrug. The series is classed as in vitro ADME. The conditions noted are these: for % Conversion of bone-bound prodrug to parent drug: 24 h incubation, 37° C.; for Impact of the medium on the rate of regeneration of parent drug (in words): serum compared to PBS.
In series [4] the test system is S. aureus ATCC 43300 (Fluoroquinolone sensitive MRSA). Kind of series: Antibacterial susceptibility (MIC), NCCLS broth microdilution. The series is classed as cell-based. In outline: (§1)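 Two-fold serial dilutions in DMSO tested in cation-adjusted Mueller Hinton broth per NCCLS M26-A, 5×10^5 c.f.u./mL inoculum, 1.25% final DMSO, duplicates.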
In general terms: Broth dilution looks for growth in wells or tubes with falling amounts of substance.

Series [5] deals with S. aureus BK85 (Fluoroquinolone resistant MRSA). The series is described as above. Format: cell-based. The method, boiled down: as §1
Series [6] has as its system S. aureus ATCC 13709. Described as above. The series is classed as cell-based. To be noted: for Antibacterial activity (in words, summary of Table 1): summary over the strains of Table 1. In outline: as §1
For the next series, the system named is S. aureus RN4220. The description is as above. The series is classed as cell-based. The conditions noted are these: CAMHB, 37° C., 18 h. In outline:
as §1

Series [7] relates to E. coli LBB925 (tolC mutant). Described as above. The series is classed as cell-based. The conditions noted are these: tolC mutant.

≈ marks a conversion by molar mass, not a printed value. A value given as a limit tells only on which side of the number the result lay.

Consider `CO[C@H]1/C=C/O[C@@]2(C)Oc3c(C)c(O)c4c(=O)c(c5oc6cc(N7CCN(CCC(=O)c8ccc(OCCCC(P(=O)(O)O)P(=O)(O)O)cc8)CC7)cc(O)c6nc-5c4c3C2=O)NC(=O)/C(C)=C\C=C\[C@H](C)[C@H](O)[C@@H](C)[C@@H](O)[C@@H](C)[C@H](OC(C)=O)[C@@H]1C` [Compound 71], for which, in the series on S. aureus ATCC 13709 [1], the “Minimum inhibitory concentration, S. aureus ATCC 13709 + 50% Human Serum” value was determined as 0.032 µg/mL; the “Minimum inhibitory concentration, S. aureus ATCC 13709 + 50% Mouse Serum” value worked out at 0.032 µg/mL; the “Minimum inhibitory concentration, S. aureus ATCC 13709 + 50% Rat Serum” value is 0.032 µg/mL. In addition, in series [2], the “Decrease in bacterial titer” value is reported as “approximately 1 logarithmic order of magnitude” and the “Effect on bacterial titer in bone infection versus the untreated control (figure legends)” value is on record as “small but statistically significant effect”. Besides, in series [3] (50% Human Serum), the “% Conversion of bone-bound prodrug to parent drug” value (“% Conversion of bone-bound prodrug” below) worked out at 0.46%. Besides, the “% Conversion of bone-bound prodrug” value in series [3] (50% Rat Serum) was 0.38%. For the same molecule, the “% Conversion of bone-bound prodrug” value in series [3] (PBS) is 0.1%. Further, the “Impact of the medium on the rate of regeneration of parent drug (in words)” value in series [3] is “significant acceleration”. Further, in series [4], the “Minimum inhibitory concentration, S. aureus ATCC 43300” value worked out at 0.0019 µg/mL (≈ 1.52 nM). The “Minimum inhibitory concentration, S. aureus BK85” value in series [5] came out at 0.0019 µg/mL (≈ 1.52 nM). Moreover, in the series on S. aureus ATCC 13709 [6], the “Minimum inhibitory concentration, S. aureus ATCC 13709” value came to 0.0019 µg/mL (≈ 1.52 nM) and the “Antibacterial activity (in words, summary of Table 1)” value was “very low MICs”. Besides, in the series on S. aureus RN4220, the “Minimum inhibitory concentration, S. aureus RN4220” value is 0.0039 µg/mL (≈ 3.12 nM). Further, the “Minimum inhibitory concentration, E. coli LBB925” value in series [7] was greater than 128 µg/mL.

In the case of `CO[C@H]1/C=C/O[C@@]2(C)Oc3c(C)c(O)c4c(=O)c(c5oc6cc(N7CCN(CC(C)C)CC7)cc(O)c6nc-5c4c3C2=O)NC(=O)/C(C)=C\C=C\[C@H](C)[C@H](OC(=O)CCCOC(=O)CCC(=O)NC(P(=O)(O)O)P(=O)(O)O)[C@@H](C)[C@@H](O)[C@@H](C)[C@H](OC(C)=O)[C@@H]1C` [Compound 81, 21-O-(4-((3-(bisphosphonomethyl)carbamoyl)propanoyloxy)butanoyl)-1′,4-Didehydro-1-deoxy-1,4-dihydro-3′-hydroxy-5′-[4-(2-methylpropyl)-1-piperazinyl]-1-oxorifamycin VIII], in the series with S. aureus ATCC 13709 [1], the “Minimum inhibitory concentration, S. aureus ATCC 13709 + 50% Human Serum” value was 0.125 µg/mL; the “Minimum inhibitory concentration, S. aureus ATCC 13709 + 50% Mouse Serum” value came to 0.0625 µg/mL; the “Minimum inhibitory concentration, S. aureus ATCC 13709 + 50% Rat Serum” value was determined as 0.03125 µg/mL. In addition, in series [2], the “Decrease in bacterial titer” value was “approximately 1 logarithmic order of magnitude” and the “Effect on bacterial titer in bone infection versus the untreated control (figure legends)” value was “small but statistically significant effect”. Further, the “% Conversion of bone-bound prodrug” value in series [3] (50% Rat Serum) came out at 2.50%. For the same molecule, the “% Conversion of bone-bound prodrug” value in series [3] (PBS) is given as 1.98%. Besides, the “Impact of the medium on the rate of regeneration of parent drug (in words)” value in series [3] is recorded as “not significantly impacted”. Also, the “Minimum inhibitory concentration, S. aureus ATCC 43300” value in series [4] worked out at 0.001 µg/mL (≈ 0.769 nM). The “Minimum inhibitory concentration, S. aureus BK85” value in series [5] was determined as 0.001 µg/mL (≈ 0.769 nM). Besides, in the series on S. aureus ATCC 13709 [6], the “Minimum inhibitory concentration, S. aureus ATCC 13709” value stood at 0.001 µg/mL (≈ 0.769 nM) and the “Antibacterial activity (in words, summary of Table 1)” value is on record as “very low MICs”. The “Minimum inhibitory concentration, S. aureus RN4220” value in the series with S. aureus RN4220 was 0.001 µg/mL (≈ 0.769 nM). For the same molecule, the “Minimum inhibitory concentration, E. coli LBB925” value in series [7] is greater than 128 µg/mL.

The values are drawn from US8404664B2, “Phosphonated Rifamycins and uses thereof for the prevention and treatment of bone and joint infections” (Targanta Therapeutics, Inc., priority 2005, dated 2013).
